Data reported in patent US8519110B2, “mRNA cap analogs” (Board of Supervisors of Louisiana State University And …, priority 2008, dated 2013).

Key:
[1] = biological target: eIF4E (Mus musculus, UniProt P63073); test: Binding affinity of cap analogs to eIF4E by fluorescence titration; settings: equilibrium association constant; for Cap analog/eIF4E affinity (KAS): 20 °C, pH 7.2, ionic strength 150 mM
Method: Fluorescence titration measurements were carried out on an LS-50B or LS-55 spectrofluorometer (Perkin Elmer Co.) at 20.0±0.2° C. in 50 mM HEPES/KOH (pH 7.2), 0.5 mM EDTA, and 1 mM DTT, with ionic strength adjusted to 150 mM by addition of KCl. Various cap analogue solutions, of increasing concentration, were added in 1 μl aliquots to 1.4 ml of 0.1 or 0.2 μM protein solutions. Fluorescence intensities were measured with excitation at 280 nm or 295 nm with 2.2 nm bandwidth, and detection at 337 nm with 4 nm bandwidth and a 290-nm cut-off filter. The data were corrected for sample dilution and inner filter effects. Equilibrium association constants (Kas) were determined by fitting the theoretical dependence of fluorescence intensity on cap analog concentration to the experimental data, as otherwise described in A. Niedźwiecka et al., “Biophysical studies of eIF4E cap-binding protein: recognition of mRNA 5′ cap structure and synthetic fragments of eIF4G and 4E-BP1 proteins,” J. Mol. Biol., vol. 312, pp. 615-635 (2002). The concentration of protein was allowed to be a free parameter in the equilibrium equation, to determine the amount of “active” protein. The final Kas was calculated as a weighted average of three to ten independent titrations, with the weights taken as the reciprocals of the squares of the numerical standard deviations. Numerical nonlinear least-square regression analysis was performed using ORGIN 6.0 (Microcal Software Inc., USA).
The binding affinities of eukaryotic eIF4E for various cap analogs were determined by fluorescence quenching. This biophysical test allows one to predict the potential efficacy of cap analogs in translation. Those having higher affinities for eIF4E than the unmodified cap analog (m^7GpppG) are expected to be better recognized by the translational machinery, leading to higher translational efficiencies. They also are expected to compete more effectively with unmodified mRNA when free cap dinucleotides are used to inhibit translation. See generally E. Grudzien-Nogalska et al., “Synthesis of anti-reverse cap analogs (ARCAs) and their applications in mRNA translation and stability,” Methods Enzymol., vol. 431, pp. 203-227 (2007).

[2] = test system: rabbit reticulocyte lysate system; test: In vitro translation efficiency of capped luciferase mRNA, method I transcripts; format: biochemical
Method: A DNA template for in vitro transcription was synthesized by PCR from the plasmid SP6p-5′UTR β-globin-LUCiferase. The template contained the SP6 promoter followed by the 5′-UTR sequence of rabbit β-globin mRNA and the entire firefly luciferase mRNA coding region. A typical in vitro transcription reaction mixture (50 μl) contained SP6 transcription buffer (Fermentas, cat. no. EP0131), 2 μg of DNA template, 2 U/μl RiboLock Ribonuclease Inhibitor (Fermentas), 2 mM each of ATP, CTP, and UTP, 0.1 mM GTP, and 1 mM dinucleotide cap analog. The reaction mixture was incubated at 37° C. for 5 min before the addition of SP6 RNA polymerase (Fermentas) to a final concentration of 2 U/μl. After 30 min of incubation at 37° C., GTP was added to a final concentration of 1 mM, and the reaction continued for an additional 90 min. The reaction mixtures were then treated with 1 U of DNase RQ1 (RNAse-free, Promega) per μg of template DNA in transcription buffer at 37° C. for 20 min. RNA transcripts were purified on DEPC-treated Sephadex G-50 spin columns (Pharmacia). The integrity of transcripts was confirmed by electrophoresis on a non-denaturating, 1% agarose gel. Concentrations were determined spectrophotometrically. The transcripts were stored at −80° C. until used.
(§1) A micrococcal nuclease-treated rabbit reticulocyte lysate system (Flexi Rabbit Reticulocyte Lysate System, Promega) was used for in vitro translation. Translation reactions were performed in 10 μl for 60 min at 30° C. A typical reaction mixture contained 40% reticulocyte lysate, the 20 “standard” amino acids (0.01 mM each), MgCl2 (1.2 mM), potassium acetate (170 mM), and mRNA (five different concentrations of each transcript, ranging from 0.25 to 4 μg/ml). Luciferase activity was measured in a luminometer (Glomax, Promega). Linear regression was used to fit the data points (luciferase activity versus concentration of mRNA transcript), and translational efficiency was defined as the slope of this line. The relative translational efficiencies of the test mRNAs were compared to that of m^7GpppG-capped luciferase mRNA, the latter being defined as 1.0.

[3] = biological target: T1, Human DcpS (Homo sapiens, UniProt Q96C86); test: Assay of susceptibility to DcpS (RP HPLC); format: biochemical
T1 construct: made in house; host or cells: Escherichia coli
T1 sequence (Q96C86 1-337): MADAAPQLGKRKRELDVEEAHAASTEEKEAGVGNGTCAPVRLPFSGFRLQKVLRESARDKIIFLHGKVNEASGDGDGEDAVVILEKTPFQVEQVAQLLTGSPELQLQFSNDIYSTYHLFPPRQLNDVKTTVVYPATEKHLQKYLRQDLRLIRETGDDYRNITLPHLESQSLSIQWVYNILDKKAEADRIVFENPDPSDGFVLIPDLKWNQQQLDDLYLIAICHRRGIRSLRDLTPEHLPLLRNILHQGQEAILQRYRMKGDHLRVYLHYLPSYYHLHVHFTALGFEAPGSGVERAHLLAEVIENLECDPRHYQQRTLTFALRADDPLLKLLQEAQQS
Method: Human DcpS was expressed in Escherichia coli as described in L. Cohen et al., “Nematode m^7GpppG and m3^2,2,7GpppG decapping: activities in Ascaris embryos and characterization of C. elegans scavenger DcpS,” RNA, vol. 10, pp. 1609-1624 (2004). A 15 μM solution of the protein in 20 mM Tris buffer, pH 7.5, containing 50 mM KCl, 0.2 mM EDTA, 1 mM DTT, 0.5 mM PMSF, and 20% glycerol was stored at −80° C. until used. Enzymatic reactions were carried out at 30° C. in 500 μl of 50 mM Tris-HCl, pH 7.9, containing 20 mM MgCl2 and 60 mM (NH4)2SO4. A 40 μM solution of the selected cap analog was treated with 5.0 μl of DcpS for 120 min. At times of 10, 30, 60, and 120 min, a 100-μl sample was collected from the reaction mixture and deactivated by incubation at 90° C. for 2 min. Samples were analyzed without further treatment by analytical RP HPLC with a linear gradient of methanol in 0.1 M KH2PO4, pH 6.0, from 0-50% over 15 min.

[4] = test system: rabbit reticulocyte lysate system; test: In vitro translation efficiency of capped luciferase mRNA with 31-base poly(A) tail, method II transcripts; format: biochemical; settings: for Translation efficiency in comparison to m^7GpppG-LUC-(A)31 mRNA, Experiment No. 4: experiment 4; for Translation efficiency in comparison to m^7GpppG-LUC-(A)31 mRNA, Experiment No. 5: experiment 5; for Translation efficiency in comparison to m^7GpppG-LUC-(A)31 mRNA, Mean: mean of experiments
Method: Capped, polyadenylated luciferase mRNAs were synthesized in vitro by PCR from a dsDNA template that contained the SP6 promoter, the 5′-UTR sequence of rabbit β-globin mRNA, the entire firefly luciferase coding region, and 31 adenosine residues. A typical transcription reaction mixture (40 μl) contained SP6 transcription buffer (Fermentas), 0.7 ug of DNA template, 1 U/μl RiboLock Ribonuclease Inhibitor (Fermentas), 0.5 mM each of ATP, CTP, and UTP, 0.1 mM GTP, and 0.5 mM dinucleotide cap analog. The reaction mixture was incubated at 37° C. for 5 min before addition of SP6 RNA polymerase (Fermentas) to a final concentration of 1 U/μl, and incubation then continued for 45 min at 37° C. The reaction mixture was treated with DNase as in Method I. RNA transcripts were purified with NucAway Spin Columns (Ambion). The integrity of transcripts and quantitation was performed as in Method I.
as §1

[5] = 40 μM cap analog, 30° C., up to 120 min

Chain of eIF4E (P63073 28-217 limits assumed): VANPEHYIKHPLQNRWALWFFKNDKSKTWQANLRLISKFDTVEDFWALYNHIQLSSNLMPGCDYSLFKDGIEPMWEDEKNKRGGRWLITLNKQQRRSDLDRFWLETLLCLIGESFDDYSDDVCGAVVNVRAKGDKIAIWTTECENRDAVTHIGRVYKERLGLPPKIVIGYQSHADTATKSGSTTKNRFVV

Cap analog-eIF4E affinity (KAS) ([1]; Table 3) [μM^−1] | Cap analog/eIF4E affinity (KAS) [1] [μM^−1] | Translation efficiency in comparison with m^7GpppG-LUC mRNA, Experiment No. 1 ([2]; experiment 1) | Translation efficiency in comparison with m^7GpppG-LUC mRNA, Experiment No. 2 ([2]; experiment 2) | Translation efficiency in comparison with m^7GpppG-LUC mRNA, Experiment No. 3 ([2]; experiment 3) | Translation efficiency in comparison with m^7GpppG-LUC mRNA, Experiment No. 4 ([2]; experiment 4) | Translation efficiency in comparison with m^7GpppG-LUC mRNA, Mean ([2]; mean of experiments) | In vitro translational efficiency, method I ([2]; relative to m^7GpppG-capped luciferase mRNA = 1.0) | Susceptibility to DcpS [3, 5] | Susceptibility to DcpS ([3]; Table 3) | In vitro translational efficiency (method II) ([4]; Table 3, relative to m^7GpppG-capped mRNA = 1.0) | Translation efficiency in comparison to m^7GpppG-LUC-(A)31 mRNA, Experiment No. 1 ([4]; experiment 1) | Translation efficiency in comparison to m^7GpppG-LUC-(A)31 mRNA, Experiment No. 2 ([4]; experiment 2) | Translation efficiency in comparison to m^7GpppG-LUC-(A)31 mRNA, Experiment No. 3 ([4]; experiment 3) | Translation efficiency in comparison to m^7GpppG-LUC-(A)31 mRNA, Experiment No. 4 [4] | Translation efficiency in comparison to m^7GpppG-LUC-(A)31 mRNA, Experiment No. 5 [4] | Translation efficiency in comparison to m^7GpppG-LUC-(A)31 mRNA, Mean [4] | Compound
10.2 ± 0.3 | 10.2 ± 0.3 | 2.53 | 2.92 | 2.96 | 2.50 | 2.73 | 2.73 ± 0.25 | hydrolyzed | hydrolyzed | 1.82 ± 0.20 | 1.98 | 1.66 | 1.61 | 1.77 | 2.08 | 1.82 | CO[C@H]1[C@@H](O)[C@H]([n+]2cn(C)c3c(=O)[nH]c(N)nc32)O[C@@H]1COP(=O)([O-])OP(=O)(O)OP(=O)(O)OC[C@H]1O[C@@H](n2cnc3c(=O)[nH]c(N)nc32)[C@H](O)[C@@H]1O [m2^7,3′-OGpppG, 7-methyl(3′-O-methyl)GpppG, reference compound]
– | 15.3 ± 0.2 | – | – | – | – | – | – | hydrolyzed | – | – | – | – | – | 2.38 | 3.28 | 2.83 | [BH3-]P(=O)(OC[C@H]1O[C@@H](n2cnc3c(=O)[nH]c(N)nc32)[C@H](O)[C@@H]1O)OP(=O)(O)OP(=O)(O)OC[C@H]1O[C@@H](n2c[n+](C)c3c(=O)[nH]c(N)nc32)[C@H](OC)[C@@H]1O (single isomer, unassigned) [m2^7,2′-OGpppBH3G (D1), m2^7,2′-OGpppBH3G]
– | 13.2 ± 0.2 | – | – | – | – | – | – | resistant | – | – | – | – | – | 3.16 | 3.53 | 3.35 | [BH3-]P(=O)(OP(=O)(O)OCC1OC(n2cnc3c(=O)[nH]c(N)nc32)C(O)C1O)OP(=O)(O)OCC1OC(n2c[n+](C)c3c(=O)[nH]c(N)nc32)C(OC)C1O (single isomer, unassigned) [m2^7,2′-OGppBH3pG (D2), m2^7,2′-OGppBH3pG]
– | 14.4 ± 0.2 | – | – | – | – | – | – | hydrolyzed | – | – | – | – | – | 1.76 | 1.92 | 1.84 | [BH3-]P(=O)(OC[C@H]1O[C@@H](n2cnc3c(=O)[nH]c(N)nc32)[C@H](O)[C@@H]1O)OP(=O)(O)OP(=O)(O)OC[C@H]1O[C@@H](n2c[n+](C)c3c(=O)[nH]c(N)nc32)[C@H](OC)[C@@H]1O (single isomer, unassigned) [m2^7,2′-OGpppBH3G (D2), m2^7,2′-OGpppBH3G]
